Reference: ChEMBL document CHEMBL5291721, “A preclinical secondary pharmacology resource illuminates target-adverse drug reaction associations of marketed drugs” (Nat Commun, 2023)

Assays:
Adenosine receptor A3 = molecular target: T1, Adenosine receptor A3 (Homo sapiens, UniProt P0DMS8)
T1 sequence (P0DMS8 whole entry): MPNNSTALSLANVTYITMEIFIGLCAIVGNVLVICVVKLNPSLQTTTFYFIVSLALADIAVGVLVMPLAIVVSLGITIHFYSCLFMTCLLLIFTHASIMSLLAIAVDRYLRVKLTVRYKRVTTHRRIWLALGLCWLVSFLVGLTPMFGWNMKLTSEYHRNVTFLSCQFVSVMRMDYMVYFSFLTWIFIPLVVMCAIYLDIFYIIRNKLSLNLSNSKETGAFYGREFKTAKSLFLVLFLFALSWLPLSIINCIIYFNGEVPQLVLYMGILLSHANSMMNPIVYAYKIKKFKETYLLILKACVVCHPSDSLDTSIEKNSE

[1] = molecular target: T2, Alpha-2A adrenergic receptor (Homo sapiens, UniProt P08913); type: functional, cell-based
T2 sequence (P08913 whole entry): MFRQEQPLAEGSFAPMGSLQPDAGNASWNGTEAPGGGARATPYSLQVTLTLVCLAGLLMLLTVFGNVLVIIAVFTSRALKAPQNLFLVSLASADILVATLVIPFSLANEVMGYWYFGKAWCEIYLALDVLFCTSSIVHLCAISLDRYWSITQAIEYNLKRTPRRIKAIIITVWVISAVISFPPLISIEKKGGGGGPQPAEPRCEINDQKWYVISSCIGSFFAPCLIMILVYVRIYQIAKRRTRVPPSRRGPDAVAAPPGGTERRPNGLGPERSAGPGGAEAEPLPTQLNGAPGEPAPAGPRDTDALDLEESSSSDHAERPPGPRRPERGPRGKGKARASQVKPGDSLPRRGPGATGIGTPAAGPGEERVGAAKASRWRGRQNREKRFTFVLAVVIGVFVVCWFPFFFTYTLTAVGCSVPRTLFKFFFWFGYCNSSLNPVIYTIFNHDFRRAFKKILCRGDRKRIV

[2] = molecular target: T3, Type-1 angiotensin II receptor (Homo sapiens, UniProt P30556)
T3 sequence (P30556 whole entry): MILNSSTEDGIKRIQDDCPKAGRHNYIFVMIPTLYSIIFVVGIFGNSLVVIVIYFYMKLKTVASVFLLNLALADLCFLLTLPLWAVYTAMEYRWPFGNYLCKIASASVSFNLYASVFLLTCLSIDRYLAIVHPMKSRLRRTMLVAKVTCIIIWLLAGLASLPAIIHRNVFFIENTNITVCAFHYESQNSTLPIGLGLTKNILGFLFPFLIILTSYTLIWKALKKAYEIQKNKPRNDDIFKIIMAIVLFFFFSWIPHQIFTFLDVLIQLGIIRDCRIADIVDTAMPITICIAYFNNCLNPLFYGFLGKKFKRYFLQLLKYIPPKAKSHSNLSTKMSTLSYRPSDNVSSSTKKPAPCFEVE

[3] = molecular target: T4, Cholecystokinin receptor type A (Homo sapiens, UniProt P32238)
T4 sequence (P32238 whole entry): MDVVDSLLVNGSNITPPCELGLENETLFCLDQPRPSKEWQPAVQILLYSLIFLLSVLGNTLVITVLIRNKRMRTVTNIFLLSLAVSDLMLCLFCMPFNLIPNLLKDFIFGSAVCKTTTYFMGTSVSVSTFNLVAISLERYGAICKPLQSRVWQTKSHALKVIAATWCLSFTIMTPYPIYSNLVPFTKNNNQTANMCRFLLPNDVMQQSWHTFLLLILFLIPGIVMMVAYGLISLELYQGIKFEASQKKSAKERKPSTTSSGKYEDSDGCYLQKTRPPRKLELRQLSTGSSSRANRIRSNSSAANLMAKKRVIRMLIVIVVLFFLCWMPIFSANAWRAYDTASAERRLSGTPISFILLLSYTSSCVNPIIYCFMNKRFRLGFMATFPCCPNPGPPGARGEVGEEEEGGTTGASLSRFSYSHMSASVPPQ

[4] = molecular target: T5, Gastrin/cholecystokinin type B receptor (Homo sapiens, UniProt P32239)
T5 sequence (P32239 whole entry): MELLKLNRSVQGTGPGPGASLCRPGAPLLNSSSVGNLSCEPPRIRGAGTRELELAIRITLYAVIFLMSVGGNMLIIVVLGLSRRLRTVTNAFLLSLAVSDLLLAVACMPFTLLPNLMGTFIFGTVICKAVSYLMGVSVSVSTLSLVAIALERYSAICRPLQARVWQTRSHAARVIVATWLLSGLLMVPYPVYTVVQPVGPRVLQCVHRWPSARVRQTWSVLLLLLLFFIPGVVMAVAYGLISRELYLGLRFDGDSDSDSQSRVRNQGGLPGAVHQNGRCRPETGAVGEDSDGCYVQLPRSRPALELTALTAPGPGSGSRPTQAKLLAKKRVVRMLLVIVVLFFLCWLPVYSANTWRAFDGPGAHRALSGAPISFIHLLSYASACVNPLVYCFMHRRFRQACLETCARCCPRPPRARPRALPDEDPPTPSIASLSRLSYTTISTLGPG

[5] = molecular target: Growth hormone secretagogue receptor type 1 (Homo sapiens, UniProt Q92847)
Sequence of Growth hormone secretagogue receptor type 1 (Q92847 whole entry): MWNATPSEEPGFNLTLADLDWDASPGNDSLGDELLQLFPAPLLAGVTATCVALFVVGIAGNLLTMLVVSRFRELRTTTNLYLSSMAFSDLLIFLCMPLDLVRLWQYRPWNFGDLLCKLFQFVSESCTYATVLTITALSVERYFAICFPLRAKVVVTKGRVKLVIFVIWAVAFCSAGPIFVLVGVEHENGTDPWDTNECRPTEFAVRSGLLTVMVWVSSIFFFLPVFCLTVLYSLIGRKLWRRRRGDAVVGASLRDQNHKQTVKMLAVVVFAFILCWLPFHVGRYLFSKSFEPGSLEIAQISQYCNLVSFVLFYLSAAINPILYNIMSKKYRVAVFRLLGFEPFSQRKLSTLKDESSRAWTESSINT

[6] = molecular target: 5-hydroxytryptamine receptor 2B (Homo sapiens, UniProt P41595); type: functional, cell-based
Sequence of 5-hydroxytryptamine receptor 2B (P41595 whole entry): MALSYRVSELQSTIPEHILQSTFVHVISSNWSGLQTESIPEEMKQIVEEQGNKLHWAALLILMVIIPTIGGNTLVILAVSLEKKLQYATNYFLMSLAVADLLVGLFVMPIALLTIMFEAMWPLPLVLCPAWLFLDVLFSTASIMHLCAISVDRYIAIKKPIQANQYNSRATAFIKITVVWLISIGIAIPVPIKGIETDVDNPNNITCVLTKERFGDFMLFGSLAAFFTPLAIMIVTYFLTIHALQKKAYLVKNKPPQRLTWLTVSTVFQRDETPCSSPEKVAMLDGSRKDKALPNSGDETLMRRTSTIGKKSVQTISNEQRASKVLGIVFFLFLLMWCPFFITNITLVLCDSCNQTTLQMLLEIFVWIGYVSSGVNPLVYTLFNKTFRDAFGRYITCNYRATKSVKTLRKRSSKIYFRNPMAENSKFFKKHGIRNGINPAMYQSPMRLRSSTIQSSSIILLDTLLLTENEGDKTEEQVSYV

[7] = molecular target: T6, Alpha-1A adrenergic receptor (Homo sapiens, UniProt P35348); type: functional, cell-based
T6 sequence (P35348 whole entry): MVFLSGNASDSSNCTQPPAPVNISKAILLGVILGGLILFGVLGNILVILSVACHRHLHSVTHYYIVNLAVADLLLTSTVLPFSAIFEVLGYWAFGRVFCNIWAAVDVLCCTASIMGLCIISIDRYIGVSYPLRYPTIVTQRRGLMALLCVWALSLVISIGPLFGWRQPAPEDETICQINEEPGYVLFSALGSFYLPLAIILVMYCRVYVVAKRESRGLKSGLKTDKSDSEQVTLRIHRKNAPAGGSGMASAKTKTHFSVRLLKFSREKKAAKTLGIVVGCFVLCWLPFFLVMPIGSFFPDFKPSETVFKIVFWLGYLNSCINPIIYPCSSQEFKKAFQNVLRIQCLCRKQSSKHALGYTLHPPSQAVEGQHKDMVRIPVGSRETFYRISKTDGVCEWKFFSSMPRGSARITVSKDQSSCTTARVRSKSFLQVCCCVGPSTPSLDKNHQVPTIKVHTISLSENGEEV

Mu-type opioid receptor = Mu-type opioid receptor (Homo sapiens, UniProt P35372); assay: biochemical; type: functional
Sequence of Mu-type opioid receptor (P35372 whole entry): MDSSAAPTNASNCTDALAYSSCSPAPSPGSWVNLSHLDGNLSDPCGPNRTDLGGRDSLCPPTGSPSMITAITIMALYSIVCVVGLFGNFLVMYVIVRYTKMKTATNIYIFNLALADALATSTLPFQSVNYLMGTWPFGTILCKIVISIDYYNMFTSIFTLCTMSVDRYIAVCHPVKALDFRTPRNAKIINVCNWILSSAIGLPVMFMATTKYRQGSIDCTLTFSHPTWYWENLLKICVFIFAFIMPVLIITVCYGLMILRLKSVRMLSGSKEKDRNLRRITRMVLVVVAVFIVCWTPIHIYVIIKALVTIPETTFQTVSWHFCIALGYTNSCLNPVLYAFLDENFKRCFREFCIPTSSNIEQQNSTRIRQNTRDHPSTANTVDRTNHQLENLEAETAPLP
Also: assay procedure not described here.

SMILES: OCc1cc(C(O)CNCCCCCCOCCCCc2ccccc2)ccc1O (stereo unspecified) [SALMETEROL]
- AC50 (Adenosine receptor A3): > 30 µM
- AC50 [1]: > 10 µM
- AC50 [2]: > 30 µM
- AC50 [3]: > 30 µM
- AC50 [4]: > 30 µM
- AC50 [5]: > 30 µM
- AC50 [6]: 12 µM

SMILES: CCN(CC)CCN1C(=O)CN=C(c2ccccc2F)c2cc(Cl)ccc21 [FLURAZEPAM]
- AC50 (Adenosine receptor A3): > 30 µM
- AC50 [7]: > 30 µM
- AC50 [1]: > 10 µM
- AC50 [2]: > 30 µM
- AC50 [3]: > 30 µM
- AC50 [4]: > 30 µM
- AC50 [5]: 22.9 µM
- AC50 [6]: > 10 µM

SMILES: CN(C(=O)c1c(O)c2ccccc2n(C)c1=O)c1ccccc1 [ROQUINIMEX]
- AC50 (Adenosine receptor A3): > 30 µM
- AC50 [7]: > 30 µM

SMILES: Cn1c(=O)cc(N2CCC[C@@H](N)C2)n(Cc2ccccc2C#N)c1=O [ALOGLIPTIN]
- AC50 (Adenosine receptor A3): > 30 µM
- AC50 [2]: > 30 µM
- AC50 [3]: > 30 µM
- AC50 [4]: > 30 µM
- AC50 [5]: > 30 µM

SMILES: O=C1CN=C(c2ccccc2)c2cc([N+](=O)[O-])ccc2N1 [NITRAZEPAM]
- AC50 (Adenosine receptor A3): > 10 µM
- AC50 [1]: > 10 µM
- AC50 [2]: > 30 µM
- AC50 [3]: > 10 µM
- AC50 [5]: > 10 µM
- AC50 [6]: > 10 µM
- AC50 (Mu-type opioid receptor): > 30 µM

SMILES: Oc1ccc2c(c1)[C@@]13CCCC[C@@]1(O)[C@@H](C2)N(CC1CCC1)CC3 [BUTORPHANOL]
- AC50 (Adenosine receptor A3): > 30 µM
- AC50 [7]: > 30 µM
- AC50 [1]: > 30 µM
- AC50 [2]: > 30 µM
- AC50 [3]: > 30 µM
- AC50 [4]: > 30 µM
- AC50 [5]: > 30 µM
- AC50 [6]: > 30 µM

SMILES: CC(=O)[C@]1(O)Cc2c(O)c3c(c(O)c2[C@@H](O[C@H]2C[C@H](N)[C@H](O)[C@H](C)O2)C1)C(=O)c1ccccc1C3=O [IDARUBICIN]
- AC50 (Adenosine receptor A3): 20 µM
- AC50 [2]: > 30 µM
- AC50 [3]: > 10 µM
- AC50 [4]: > 30 µM
- AC50 [5]: 7.7 µM
- AC50 (Mu-type opioid receptor): > 30 µM

SMILES: COc1cc2ncnc(Nc3ccc(F)c(Cl)c3)c2cc1NC(=O)/C=C/CN1CCCCC1 [DACOMITINIB ANHYDROUS]
- AC50 (Adenosine receptor A3): 21 µM
- AC50 [7]: > 30 µM

SMILES: Nc1cc(-c2ccncc2)c[nH]c1=O [INAMRINONE]
- AC50 (Adenosine receptor A3): > 30 µM
- AC50 [7]: > 30 µM
- AC50 [1]: > 10 µM
- AC50 [2]: > 30 µM
- AC50 [3]: > 30 µM
- AC50 [4]: > 30 µM
- AC50 [5]: > 30 µM
- AC50 [6]: > 10 µM

SMILES: COc1cc2c(cc1OC)C(CCc1ccc(Cl)cc1)N(C)CC2 (stereo unspecified) [METHOPHOLINE]
- AC50 (Adenosine receptor A3): > 30 µM
- AC50 [1]: > 10 µM
- AC50 [2]: > 30 µM
- AC50 [3]: > 30 µM
- AC50 [5]: > 30 µM
- AC50 [6]: > 10 µM

SMILES: C/C(=C\C(=O)OCCCCCCCCC(=O)O)C[C@@H]1OC[C@H](C[C@@H]2O[C@H]2[C@@H](C)[C@H](C)O)[C@@H](O)[C@H]1O [MUPIROCIN]
- AC50 (Adenosine receptor A3): > 10 µM
- AC50 [1]: > 10 µM
- AC50 [2]: > 10 µM
- AC50 [3]: > 10 µM
- AC50 [5]: > 10 µM
- AC50 [6]: > 10 µM

SMILES: CC(=O)OCC(=O)[C@@]1(O)[C@H](C)C[C@H]2[C@@H]3CCC4=CC(=O)C=C[C@]4(C)[C@@]3(F)[C@@H](O)C[C@@]21C [DEXAMETHASONE ACETATE]
- AC50 (Adenosine receptor A3): > 30 µM
- AC50 [7]: > 30 µM
- AC50 [1]: > 10 µM
- AC50 [2]: > 30 µM
- AC50 [3]: > 30 µM
- AC50 [4]: > 30 µM
- AC50 [5]: > 30 µM
- AC50 [6]: > 10 µM

SMILES: Cn1cnc2c(F)c(Nc3ccc(Br)cc3Cl)c(C(=O)NOCCO)cc21 [SELUMETINIB]
- AC50 (Adenosine receptor A3): > 30 µM

SMILES: O=C1CN=C(c2ccccn2)c2cc(Br)ccc2N1 [BROMAZEPAM]
- AC50 (Adenosine receptor A3): > 10 µM
- AC50 [7]: 11 µM
- AC50 [1]: > 10 µM
- AC50 [2]: > 10 µM
- AC50 [3]: > 10 µM
- AC50 [5]: > 10 µM
- AC50 [6]: > 10 µM

SMILES: Cc1ncc2n1-c1ccc(Cl)cc1C(c1ccccc1F)=NC2 [MIDAZOLAM]
- AC50 (Adenosine receptor A3): > 30 µM
- AC50 [7]: > 30 µM
- AC50 [1]: > 10 µM
- AC50 [2]: > 30 µM
- AC50 [3]: > 30 µM
- AC50 [4]: > 30 µM
- AC50 [5]: > 30 µM
- AC50 [6]: > 10 µM

SMILES: CC(=O)[C@@]1(O)CC[C@H]2[C@@H]3C=C(Cl)C4=CC(=O)[C@@H]5C[C@@H]5[C@]4(C)[C@H]3CC[C@@]21C [CYPROTERONE]
- AC50 (Adenosine receptor A3): > 10 µM
- AC50 [1]: > 10 µM
- AC50 [2]: > 30 µM
- AC50 [3]: > 10 µM
- AC50 [5]: > 10 µM
- AC50 [6]: > 10 µM
- AC50 (Mu-type opioid receptor): > 30 µM
